Experimental findings from US11583543B2, “Ambroxol to improve and/or extend healthspan, lifespan and/or mental acuity” (NeueRe, LLC, priority 2017, dated 2023) are described below.

One assay concerns mice. Put plainly: Novel place recognition cognitive acuity test. It is filed as in vivo, mouse. As to conditions: tested at 7 months, FIG. 2. How it is done:
FIG. 2. Mice were tested at age 7 months for novel place recognition. This is a cognitive test to measure short term working memory, involving recognition of a familiar object found in an unfamiliar place (see Magen et al (2012) Eur. J. Neurosci. 35: 870-882; Magen and Chesselet (2011) J. Parkinson's Disease 1: 217-227). A Discrimination Index (DI)=(tnovel−tfamiliar)/(tnovel+tfamiliar) is used to assess the time spent exploring near the object in a novel place (“tnovel”) vs. the total exploration time overall. Discrimination Index scores greater than zero are considered to indicate good place recognition memory. In this experiment, three groups of mice, with at least 13 mice in each group, were given a cognitive acuity test at 7 months.

A further assay has as its system male BDF1 mice. Briefly: Lifespan study with ambroxol as chow supplement. The format is in vivo, mouse. As to the method:
Group 1 represents control animals that were not administered ambroxol; Group 2 represents animals administered 50 mg/kg (body weight) of ambroxol daily as a chow supplement, starting at 2 months of age
Weaned male BDF1 mice were raised from pups, housed 1-4 animals per cage and fed Teklad 7013 NIH-31 rodent chow and water ad libitum. At 2 months of age, the mice were divided into two roughly equal groups of 22-25 animals. One group continued to be fed the Teklad chow as before (control); the other group was switched to Teklad chow formulated with ambroxol at 300 mg per kg of chow. This formulation was designed, based on the average ad libitum chow consumption of an adult male BDF1 mouse, to deliver 50 mg/kg/day (based on body mass) to each mouse in the treated group. Mice were maintained on this diet until they died naturally or until they reached 16 months of age, at which time the experiment ended. During the course of the experiment all mice were periodically removed from their cages and handled in the course of subjecting them to various sensorimotor, cognitive, and/or behavioral tests.
Group 1 represents control animals that were not administered ambroxol; Group 2 represents animals administered 50 mg/kg of ambroxol daily as a chow supplement, starting at 2 months of age.

The subject of a further assay is NIH3T3 cells. Briefly: Basal macroautophagy, mCherry-GFP-LC3 tandem reporter, high content microscopy. The format is cell-based, mouse. As to conditions: 24 h in complete media; autophagic vacuoles, autophagosomes, autolysosomes; FIG. 3. How it is done:
FIG. 3. Effect of Ambroxol on basal macroautophagy in mouse cells. Mouse fibroblasts in culture (NIH3T3 cells) expressing the tandem reporter mCherry-GFP-LC3 were exposed to the indicated concentrations of Ambroxol for 24 h in complete media. Panel A. Schematic of the autophagic compartments analyzed. Panels B-D. Number of autophagic vacuoles (AV) (Panel B); autophagosomes (APG) (Panel C); and autolysosomes (AUT) (Panel D). All values are mean+s.e.m. and quantifications were done in at least 2,500 cells per condition in three different experiments using high content microscopy. Differences with untreated (0 uM ambroxol) are significant for *p<0.05 **p<0.01 and ***p<0.001.
Mouse fibroblasts (NIH3T3) were obtained from the American Type Culture Collection (ATCC). […] The number of particles/puncta per cell was quantified using the ‘particle identifier’ function in the cytosolic region after thresholding in non-saturated images. In all cases, focal plane thickness was set at 0.17 μm and sections with maximal nucleus diameter were selected for quantification. […] Macroautophagy activity in intact cells was measured upon transduction with lentivirus carrying the mCherry-GFP-LC3 tandem construct. […] Cells were plated on glass-bottom 96 well plates and fluorescence was read in both channels. […] Autophagic flux was determined as the conversion of autophagosomes (yellow) to autolysosomes (red only puncta).

In the case of `Nc1c(Br)cc(Br)cc1CN[C@H]1CC[C@H](O)CC1` [Ambroxol, trans-4-(2-amino-3,5-dibromobenzylamino) cyclohexanol], the cognitive acuity entry is “best cognitive acuity results” in the assay with mice (High Dose group 150 mg/kg/day); “results in between the Control Group and the “High Dose” Group” in the assay on mice (Low Dose group 50 mg/kg/day). Besides, in the assay on male BDF1 mice (50 mg/kg daily as chow supplement from 2 months of age, until 16 months, vs control (Group 1), FIG. 1), the lifespan entry is given as “increase lifespan”. In addition, the “healthspan (health of surviving animals when sacrificed)” value in the assay on male BDF1 mice (Group 2, 50 mg/kg daily, vs Group 1 control, preliminary data) is recorded as “at least as healthy”. Also, the macroautophagy entry in the assay with NIH3T3 cells is reported as “Induces Macroautophagy”.
